Source: the supplement of paper PMC10307832

How the values were obtained:
Experiment in all cases: relative viability (nuclei count vs DMSO), 5 days (fraction); higher = more cells survive
[1] = test system: HARA
Outline: (§1)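 Lung cancer cell lines, seeded in 1536-well plates, were treated the following day by pin tool with a single drug or with five library-drug doses (not always all listed) in √10 steps on top of a fixed anchor-drug dose. Cells were fixed and nuclei stained in one step after 5 days, and nuclei were counted. Relative viability is the nuclei count for treated wells divided by that for vehicle wells, reported as medians of duplicate plates.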

[2] = test system: NCI-H1975
Outline: as §1

[3] = test system: NCI-H2126
Outline: as §1

[4] = test system: NCI-H1666
Outline: as §1

[5] = test system: RERF-LC-KJ
Outline: as §1

[6] = test system: NCI-H1651
Outline: as §1

[7] = test system: NCI-H2085
Outline: as §1

[8] = test system: ABC-1
Outline: as §1

[9] = test system: NCI-H1734
Outline: as §1

[10] = test system: NCI-H838
Outline: as §1

[11] = test system: NCI-H520
Outline: as §1

[12] = test system: SW 900
Outline: as §1

[13] = test system: A-427
Outline: as §1

[14] = test system: NCI-H460
Outline: as §1

[15] = test system: NCI-H661
Outline: as §1

[16] = test system: LCLC-103H
Outline: as §1

[17] = test system: LOU-NH91
Outline: as §1

[18] = test system: NCI-H647
Outline: as §1

[19] = test system: NCI-H727
Outline: as §1

[20] = test system: BEN
Outline: as §1

[21] = test system: CAL-12T
Outline: as §1

[22] = test system: NCI-H1944
Outline: as §1

`Cc1csc(=NC2CCCCC2)n1/N=C/c1ccc(O)c(O)c1O` [MIM1] + CC(=O)c1c(C)c2cnc(Nc3ccc(N4CCNCC4)cn3)nc2n(C2CCCC2)c1=O [Palbociclib] (partner 0.5 µM) was tested, and the relative viability ([1]; first compound 0.2 µM) was 0.253, the relative viability ([1]; first compound 0.6325 µM) was 0.302 and the relative viability ([1]; first compound 2 µM) was 0.281. The relative viability ([1]; first compound 6.325 µM) was 0.251, the relative viability ([1]; first compound 20 µM) was 0.169 and the relative viability ([2]; first compound 0.2 µM) was 0.529. For the same molecule, the relative viability ([2]; first compound 0.6325 µM) was 0.67, the relative viability ([2]; first compound 2 µM) was 0.519 and the relative viability ([2]; first compound 6.325 µM) was 0.256. For the same molecule, the relative viability ([2]; first compound 20 µM) was 0.169, the relative viability ([3]; first compound 0.2 µM) was 0.336 and the relative viability ([3]; first compound 0.6325 µM) was 0.388. For the same molecule, the relative viability ([3]; first compound 2 µM) was 0.348, the relative viability ([3]; first compound 6.325 µM) was 0.34 and the relative viability ([3]; first compound 20 µM) was 0.329. The relative viability ([4]; first compound 0.2 µM) was 0.668, the relative viability ([4]; first compound 0.6325 µM) was 0.608 and the relative viability ([4]; first compound 2 µM) was 0.611. For the same molecule, the relative viability ([4]; first compound 6.325 µM) was 0.647, the relative viability ([4]; first compound 20 µM) was 0.67 and the relative viability ([5]; first compound 0.2 µM) was 0.952. It also gave a relative viability ([5]; first compound 0.6325 µM) of 0.995, a relative viability ([5]; first compound 2 µM) of 0.686 and a relative viability ([5]; first compound 6.325 µM) of 0.613. It also gave a relative viability ([5]; first compound 20 µM) of 0.227, a relative viability ([6]; first compound 0.2 µM) of 0.542 and a relative viability ([6]; first compound 0.6325 µM) of 0.531. It also gave a relative viability ([6]; first compound 2 µM) of 0.521, a relative viability ([6]; first compound 6.325 µM) of 0.416 and a relative viability ([6]; first compound 20 µM) of 0.541. For the same molecule, the relative viability ([7]; first compound 0.2 µM) was 0.476, the relative viability ([7]; first compound 0.6325 µM) was 0.466 and the relative viability ([7]; first compound 2 µM) was 0.461. The relative viability ([7]; first compound 6.325 µM) was 0.482, the relative viability ([7]; first compound 20 µM) was 0.537 and the relative viability ([8]; first compound 0.2 µM) was 0.603. It also gave a relative viability ([8]; first compound 0.6325 µM) of 0.988, a relative viability ([8]; first compound 2 µM) of 0.544 and a relative viability ([8]; first compound 6.325 µM) of 0.406. The relative viability ([8]; first compound 20 µM) was 0.473, the relative viability ([9]; first compound 0.2 µM) was 0.32 and the relative viability ([9]; first compound 0.6325 µM) was 0.361. For the same molecule, the relative viability ([9]; first compound 2 µM) was 0.34, the relative viability ([9]; first compound 6.325 µM) was 0.322 and the relative viability ([9]; first compound 20 µM) was 0.193. The relative viability ([10]; first compound 0.2 µM) was 0.202, the relative viability ([10]; first compound 0.6325 µM) was 0.26 and the relative viability ([10]; first compound 2 µM) was 0.216. The relative viability ([10]; first compound 6.325 µM) was 0.169, the relative viability ([10]; first compound 20 µM) was 0.168 and the relative viability ([11]; first compound 0.2 µM) was 0.195. For the same molecule, the relative viability ([11]; first compound 0.6325 µM) was 0.239, the relative viability ([11]; first compound 2 µM) was 0.201 and the relative viability ([11]; first compound 6.325 µM) was 0.22. For the same molecule, the relative viability ([11]; first compound 20 µM) was 0.183, the relative viability ([12]; first compound 0.2 µM) was 0.632 and the relative viability ([12]; first compound 0.6325 µM) was 0.581. It also gave a relative viability ([12]; first compound 2 µM) of 0.507, a relative viability ([12]; first compound 6.325 µM) of 0.211 and a relative viability ([12]; first compound 20 µM) of 0.171. The relative viability ([13]; first compound 0.2 µM) was 0.523, the relative viability ([13]; first compound 0.6325 µM) was 0.471 and the relative viability ([13]; first compound 2 µM) was 0.545. The relative viability ([13]; first compound 6.325 µM) was 0.473, the relative viability ([13]; first compound 20 µM) was 0.337 and the relative viability ([14]; first compound 0.2 µM) was 0.219. The relative viability ([14]; first compound 0.6325 µM) was 0.169, the relative viability ([14]; first compound 2 µM) was 0.106 and the relative viability ([14]; first compound 6.325 µM) was 0.0475. For the same molecule, the relative viability ([14]; first compound 20 µM) was 0.027, the relative viability ([15]; first compound 0.2 µM) was 0.404 and the relative viability ([15]; first compound 0.6325 µM) was 0.42. It also gave a relative viability ([15]; first compound 2 µM) of 0.348, a relative viability ([15]; first compound 6.325 µM) of 0.33 and a relative viability ([15]; first compound 20 µM) of 0.301. It also gave a relative viability ([16]; first compound 0.2 µM) of 0.465, a relative viability ([16]; first compound 0.6325 µM) of 0.528 and a relative viability ([16]; first compound 2 µM) of 0.477. The relative viability ([16]; first compound 6.325 µM) was 0.482, the relative viability ([16]; first compound 20 µM) was 0.389 and the relative viability ([17]; first compound 0.2 µM) was 0.524. It also gave a relative viability ([17]; first compound 0.6325 µM) of 0.569, a relative viability ([17]; first compound 2 µM) of 0.516 and a relative viability ([17]; first compound 6.325 µM) of 0.499. The relative viability ([17]; first compound 20 µM) was 0.36, the relative viability ([18]; first compound 0.2 µM) was 0.395 and the relative viability ([18]; first compound 0.6325 µM) was 0.404. For the same molecule, the relative viability ([18]; first compound 2 µM) was 0.381, the relative viability ([18]; first compound 6.325 µM) was 0.338 and the relative viability ([18]; first compound 20 µM) was 0.0937. For the same molecule, the relative viability ([19]; first compound 0.2 µM) was 0.634, the relative viability ([19]; first compound 0.6325 µM) was 0.686 and the relative viability ([19]; first compound 2 µM) was 0.605. For the same molecule, the relative viability ([19]; first compound 6.325 µM) was 0.546, the relative viability ([19]; first compound 20 µM) was 0.472 and the relative viability ([20]; first compound 0.2 µM) was 0.507. The relative viability ([20]; first compound 0.6325 µM) was 0.466, the relative viability ([20]; first compound 2 µM) was 0.438 and the relative viability ([20]; first compound 6.325 µM) was 0.468. For the same molecule, the relative viability ([20]; first compound 20 µM) was 0.407, the relative viability ([21]; first compound 0.2 µM) was 0.526 and the relative viability ([21]; first compound 0.6325 µM) was 0.386. For the same molecule, the relative viability ([21]; first compound 2 µM) was 0.481, the relative viability ([21]; first compound 6.325 µM) was 0.268 and the relative viability ([21]; first compound 20 µM) was 0.118. It also gave a relative viability ([22]; first compound 0.2 µM) of 0.369, a relative viability ([22]; first compound 0.6325 µM) of 0.314 and a relative viability ([22]; first compound 2 µM) of 0.248. The relative viability ([22]; first compound 6.325 µM) was 0.255 and the relative viability ([22]; first compound 20 µM) was 0.186.
